Results as given in patent publication US7977481B2, “Pyrimidinyl-thiophene kinase modulators” (SGX Pharmaceuticals, Inc., priority 2005, dated 2011).

Tests used:
[1] = molecular target: T1, Autophosphorylated AurA kinase (Homo sapiens, UniProt O14965); test: AurA Luminescence-Based ATP Depletion Enzyme Assay; format: biochemical; conditions: 10 μM ATP
T1 construct: made in house; host or cells: Sf9 insect cells
T1 sequence (O14965 1-403): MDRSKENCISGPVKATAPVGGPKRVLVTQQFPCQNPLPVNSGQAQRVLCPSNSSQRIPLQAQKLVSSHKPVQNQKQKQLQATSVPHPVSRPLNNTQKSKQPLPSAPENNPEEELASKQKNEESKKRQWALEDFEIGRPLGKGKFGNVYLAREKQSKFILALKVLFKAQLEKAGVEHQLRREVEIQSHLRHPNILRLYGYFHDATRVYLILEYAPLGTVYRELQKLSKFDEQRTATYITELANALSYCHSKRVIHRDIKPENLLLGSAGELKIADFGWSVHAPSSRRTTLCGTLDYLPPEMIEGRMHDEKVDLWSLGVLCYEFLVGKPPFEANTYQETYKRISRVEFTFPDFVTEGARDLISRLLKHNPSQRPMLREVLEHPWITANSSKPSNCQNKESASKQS
Protocol: AurA Luminescence-Based ATP Depletion Enzyme Assay
Materials: Kemptide peptide substrate=LRRASLG (Biopeptide, San Diego, Calif.), ATP (Sigma Cat#A-3377, FW=551), HEPES buffer, pH 7.5, 10% Brij 35 (Calbiochem Cat#203728), MgCl2, Staurosporine (Streptomyces sp. Sigma Cat#85660-1MG), white Costar 384-well flat-bottom plate (VWR Cat#29444-088), Autophosphorylated AurA kinase (see below), Kinase-Glo™ (Promega Cat#V6712).
Stock Solutions: 10 mM Kemptide peptide (7.72 mg/ml in water), stored at −20° C.; 100 mM HEPES buffer+0.015% Brij 35, pH 7.5 (5 ml 1M HEPES stock+75 μL 10% Brij 35+45 ml miliQH2O); 10 mM ATP (5.51 mg/ml in dH2O) stored at −20° C. (diluted 50 μl into total of 10 ml miliQH2O daily=50 μM ATP working stock); 100 mM MgCl2; 200 μM Staurosporine, 2× Kinase-Glo™ reagent (made fresh or stored at −20° C.).
AurA Autophosphorylation Reaction: ATP and MgCl2 were added to 1-5 mg/ml AurA at final concentrations of 10 mM and 100 mM, respectively. The autophosphorylation reaction was incubated at 21° C. for 2-3 h. The reaction was stopped by the addition of EDTA to a final concentration of 50 mM, and samples were flash frozen with liquid N2 and stored at −80° C.
Standard Assay Setup for 384-well format (20 μl kinase reaction, 40 μl detection reaction): 10 mM MgCl2; 0.2 mM Kemptide peptide; 1 μl test compound (in DMSO); 0.3 μg/ml Autophosphorylated AurA kinase; 10 μM ATP; 100 mM HEPES+0.015% Brij buffer. Positive controls contained DMSO with no test compound. Negative controls contained 5 μM staurosporine. The kinase reactions were initiated at time t=0 by the addition of ATP. Kinase reactions were incubated at 21° C. for 45 min, then 20 μl of Kinase-Glo™ reagent were added to each well to quench the kinase reaction and initiate the luminescence reaction. After a 20 min incubation at 21° C., the luminescence was detected in a plate-reading luminometer.
The Sf9 insect cell pellets (˜18 g) produced from 6 L of cultured cells expressing human Aurora-2 were resuspended in 50 mM Na Phosphate pH 8.0, 500 mM NaCl, 10% glycerol, 0.2% n-octyl-β-D-glucopyranoside (BOG) and 3 mM β-Mercaptoethanol (BME). One tablet of Roche Complete, EDTA-free protease inhibitor cocktail (Cat#1873580) and 85 units Benzonase (Novagen Cat#70746-3)) were added per 1 L of original culture. Pellets were resuspended in approximately 50 ml per 1 L of original culture and were then sonicated on ice with two 30-45 sec bursts (100% duty cycle). Debris was removed by centrifugation and the supernatant was passed through a 0.8 μm syringe filter before being loaded onto a 5 ml Ni^2+ HiTrap column (Pharmacia). The column was washed with 6 column volumes of 50 mM Na Phosphate pH 8.0, 500 mM NaCl, 10% glycerol, 3 mM BME. The protein was eluted using a linear gradient of the same buffer containing 500 mM Imidazole. The eluant (24 ml) was cleaved overnight at 4° C. in a buffer containing 50 mM Na Phosphate pH 8.0, 500 mM NaCl, 10% glycerol, 3 mM BME and 10,000 units of TEV (Invitrogen Cat#10127-017). The protein was passed over a second nickel affinity column as described above; the flow-through was collected. The cleaved protein fractions were combined and concentrated using spin concentrators. Further purification was done by gel filtration chromatography on a S75 sizing column in 50 mM Na Phosphate (pH 8.0), 250 mM NaCl, 1 mM EDTA, 0.1 mM AMP-PNP or ATP buffer, and 5 mM DTT. The cleanest fractions were combined and concentrated to approximately 8-11 mg/ml, and were either flash frozen in liquid nitrogen in 120 μl aliquots and stored at −80° C., or stored at 4° C.

HCT116 cells = test: 96-well XTT cell survival assay (AurA XTT); format: cell-based; conditions: Homo sapiens, HCT-116, 72 hours
Protocol: HCT116 cells were maintained in McCoy's 5a Medium supplemented with 10% fetal bovine serum (FBS) 2 mM L-Glutamine and 100 units penicillin/100 μg streptomycin, at 37° C. in 5% CO2
Compounds were tested in the following assays in duplicate.
96-well XTT assay: Cells were grown in growth media containing various concentrations of compounds (duplicates) on a 96-well flat bottom plate for 72 hours at 37° C. in 5% CO2. The starting cell number was 5000 cells per well and volume was 120 μl. At the end of the 72-hour incubation, 40 μl of XTT labeling mixture (50:1 solution of sodium 3′-[1-(phenylaminocarbonyl)-3,4-tetrazolium]-bis(4-methoxy-6-nitro) benzene sulfonic acid hydrate and Electron-coupling reagent: PMS (N-methyl dibenzopyrazine methyl sulfate) were added to each well of the plate. After an additional 2-6 hours […] with a spectrophotometer.

Row | Compound | IC50 [1] [nM] | IC50 (HCT116 cells) [nM]
1 | C[C@@H](NC(=O)c1ccc(-c2ccnc(Nc3cccc(CN4CCN(CCO)CC4)c3)n2)s1)c1ccccc1 | < 100 | < 1000
2 | CCN(CCC#N)S(=O)(=O)c1ccc(-c2ccnc(Nc3cccc(C)c3)n2)s1 | < 100 | 1000 to 5000
3 | CC(O)c1cccc(Nc2nccc(-c3ccc(S(=O)(=O)Cc4ccccc4)s3)n2)c1 (stereo not shown) | 100 to 500 | –
4 | CC(O)c1cccc(Nc2nccc(-c3ccc(-c4cccc(CC#N)c4)s3)n2)c1 (stereo not shown) | 100 to 500 | –
5 | COc1ccc(Nc2nccc(-c3ccc(Br)s3)n2)cc1OC | < 100 | –
6 | O=C(NCc1ccccc1)c1ccc(-c2ccnc(Nc3ccc(CCO)cc3)n2)s1 | < 100 | 1000 to 5000
7 | CCN(CCC#N)C(=O)c1ccc(-c2ccnc(Nc3cccc(C(C)O)c3)n2)s1 (stereo not shown) | 100 to 500 | < 1000
8 | CC(O)c1cccc(Nc2nccc(-c3ccc(-c4ccncc4)s3)n2)c1 (stereo not shown) | > 500 | –
9 | CCC(=O)Nc1ccc(-c2ccnc(Nc3cccc(C)c3)n2)s1 | 100 to 500 | 1000 to 5000
10 | O=C(c1cccc(Nc2nccc(-c3ccc(Br)s3)n2)c1)N1CCN(CCO)CC1 | 100 to 500 | 1000 to 5000
11 | OC1CCN(Cc2cccc(Nc3nccc(-c4ccc(CNc5ccccc5Cl)s4)n3)c2)CC1 | > 500 | –
12 | CCC1CCCCN1S(=O)(=O)c1ccc(-c2ccnc(Nc3cccc(C(C)O)c3)n2)s1 (stereo not shown) | 100 to 500 | –
13 | CN(C)C(=O)c1cccc(Nc2nccc(-c3ccc(Br)s3)n2)c1 | 100 to 500 | –

Continued, in another order:

Row | IC50 [1] [nM] | Compound | IC50 (HCT116 cells) [nM]
14 | < 100 | CC(O)c1cccc(Nc2nccc(-c3ccc(S(=O)(=O)N(C)C)s3)n2)c1 (stereo not shown) | 1000 to 5000
15 | < 100 | C[C@@H](NC(=O)c1ccc(-c2ccnc(Nc3cccc(CN4CCC(O)CC4)c3)n2)s1)c1ccccc1 | < 1000
16 | 100 to 500 | CNC(=O)c1ccc(-c2ccc(-c3ccnc(Nc4cccc(C(C)O)c4)n3)s2)cc1 (stereo not shown) | –
17 | < 100 | CCN(CCC#N)S(=O)(=O)c1ccc(-c2ccnc(Nc3cccc(C(C)O)c3)n2)s1 (stereo not shown) | 1000 to 5000
18 | 100 to 500 | COc1ccc(Nc2nccc(-c3ccc(Br)s3)n2)cc1C(=O)N(C)C | 1000 to 5000
19 | 100 to 500 | CN(C)C1CCN(c2cccc(Nc3nccc(-c4ccc(C(=O)NCc5ccco5)s4)n3)c2)C1 (stereo not shown) | –
20 | 100 to 500 | CC(O)c1cccc(Nc2nccc(-c3ccc(-c4cccnc4)s3)n2)c1 (stereo not shown) | 1000 to 5000
21 | < 100 | CN(Cc1ccccc1)C(=O)c1ccc(-c2ccnc(Nc3ccc(CCO)cc3)n2)s1 | 1000 to 5000
22 | > 500 | Brc1ccc(-c2ccnc(Nc3cccc(CN4CCOCC4)c3)n2)s1 | –
